Test results reported in PMC10539501 (Nature Communications, 2023).
Starred links: 1 amine or outer side, 2 acyl side, 3 side chain; linkers in the order of their positions; H or OH if unused. Non-standard residues stand in square brackets, D forms with d. Residues, ends and D or L forms follow the SMILES beside them. X10 = NCCCC[C@H](NC(=S)[C@@H](Cc1c[nH]c2ccccc12)N[*:1])C(=O)[*:2]; X7 = C[C@@H](O)[C@H](NC(=S)[C@H](CCCCN)N[*:1])C(=O)[*:2]

Legend:
[1] = in vivo; conditions: male, rat, sc; for half-life: Sprague-Dawley
Experimental: Subsequently, we selected 13a, 13b, 13d, and 13e for assessing their plasma exposure post single dose subcutaneous injection into male Sprague Dawley rats.
All animals were housed individually in the animal facility at Anthem Biosciences Pvt. Ltd and were acclimatized for 3 days. All animals were fasted overnight before dosing, whereas access to water was provided ad libitum. Peptides were administered orally and via s.c. route and blood samples were collected at different time points through a jugular vein catheter.

[2] = target: T1, SSTR5 (Homo sapiens, UniProt P35346); test: GloSensor assay, inhibition of forskolin-induced cAMP production; assay type: cell-based
T1 construct: expressed in transfected cells; host or cells: HEK-293T (CRL-3216)
T1 sequence (P35346 whole entry): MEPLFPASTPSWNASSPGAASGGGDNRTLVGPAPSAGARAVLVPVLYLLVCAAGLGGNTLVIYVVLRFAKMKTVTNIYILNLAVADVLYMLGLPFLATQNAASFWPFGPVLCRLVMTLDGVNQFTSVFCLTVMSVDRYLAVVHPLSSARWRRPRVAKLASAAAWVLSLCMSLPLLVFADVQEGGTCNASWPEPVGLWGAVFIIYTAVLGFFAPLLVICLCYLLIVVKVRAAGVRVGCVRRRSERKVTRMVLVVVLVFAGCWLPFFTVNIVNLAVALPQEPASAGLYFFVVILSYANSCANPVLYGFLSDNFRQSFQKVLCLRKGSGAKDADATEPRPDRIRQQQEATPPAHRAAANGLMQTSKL
Experimental: HEK-293T cells (CRL-3216 from ATCC, procured from NCCS, Pune) were co-transfected with human somatostatin receptor subtypes 2 & 5, plasmid cDNA, and cAMP biosensor (pGloSensorTM-22F plasmid; Promega Corp.) using PEImax. Ligand incubation was followed by the addition and incubation of forskolin (FSK) to the plate. Dose-dependent inhibition of forskolin-induced cAMP production by the peptide ligands was measured using a luminescence plate reader. An elaborate description of the assay setup has been provided in Supplementary Information.

[3] = in vitro; conditions: both, human, plasma
[4] = target: T2, SSTR2 (Homo sapiens, UniProt P30874); test: GloSensor assay, inhibition of forskolin-induced cAMP production; assay type: cell-based; conditions: for IC50: read-out: IC50 sstr2
T2 construct: expressed in transfected cells; host or cells: HEK-293T (CRL-3216)
T2 sequence (P30874 whole entry): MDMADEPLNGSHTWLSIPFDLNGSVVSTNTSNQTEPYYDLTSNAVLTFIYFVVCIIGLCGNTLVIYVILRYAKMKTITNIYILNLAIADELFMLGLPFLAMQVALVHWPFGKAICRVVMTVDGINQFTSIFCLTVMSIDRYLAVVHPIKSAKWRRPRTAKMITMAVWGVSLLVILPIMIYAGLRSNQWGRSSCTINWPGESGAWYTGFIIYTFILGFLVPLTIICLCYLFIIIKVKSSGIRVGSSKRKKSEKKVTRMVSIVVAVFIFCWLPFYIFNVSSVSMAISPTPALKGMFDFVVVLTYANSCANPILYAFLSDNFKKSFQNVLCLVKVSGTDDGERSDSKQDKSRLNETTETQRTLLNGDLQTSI

[5] = PAMPA passive permeability; assay type: in vitro ADME; conditions: Pe;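 also: passive permeability across an artificial membrane in 96-well pre-coated PAMPA plates, which lack transporters and efflux systems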
Experimental: Encouraged by this, the passive permeability of the analogs was evaluated using an artificial membrane (PAMPA), which measures permeability of compounds in the absence of transporters and efflux systems[32].
96-well BD Corning® pre-coated PAMPA plates were used following the supplier’s protocol, details in Supplementary Information.

[6] = tested on: pancreatin
Experimental: We next assessed the stability of the macrocyclic peptides in Simulated Intestinal Fluid (SIF)[42], comprising of pancreatin, which is a mixture of several proteases produced by the exocrine cells of the porcine pancreas.
A stability assessment of the peptides was done in simulated gastric (SGF) and intestinal (SIF) fluids and human liver microsomes. The degradation kinetics of the aliquoted samples at desired time points were analyzed through RP-HPLC.

[7] = assay type: physicochemical
Text: Since reduced solvation of S also contributes to the lipophilicity of the thioamidated peptides, we sought to estimate the global desolvation of the macrocyclic peptides, which is affected by solvation of both N(H) and C(S). […] Thus, we evaluated the desolvation potential of the cyclic peptides by determining the distribution coefficients in heptane-ethylene glycol (logDh/e), a solvent system that provides an experimental estimate of desolvation or hydrogen bond potential[38].

[8] = tested on: growth hormone (GH) release; test: In vivo inhibition of growth hormone release (sandwich ELISA); parameters: species or system rats; conditions: for AUC 0_24: growth hormone AUC 0-24 h; for AUC 0_24 / AUC 0_48 / AUC 24_48: mean of n = 3; for AUC 0_48: growth hormone AUC 0-48 h; for AUC 24_48: growth hormone AUC 24-48 h
Experimental: In vivo inhibition of GH. Finally, we estimated the in vivo efficacy of 13 and the thioamidated analogs 13b, 13d, and 13e in suppressing the release of growth hormone (GH) post subcutaneous injection at 250 μg/kg dosage (Fig. 7e). 13a was also included as a negative control to assess its effect on GH release. The rats were bled from their orbital sinus, and the plasma GH levels were evaluated through sandwich ELISA. […] This correlates well with the high plasma concentration of 13 at the initial time points and a rapid drop within 2 h of s.c. administration (Fig. 7c). […] In contrast, the inhibitory effect lasts longer in 13b, 13d, and 13e showing a significant reduction in plasma GH levels within 24–48 h (Fig. 7h). […] The rapid drop in plasma concentration of 13 is responsible for its least in vivo efficacy.
Animal housing and acclimatization were done at Central Animal Facility, IISc Bangalore, as mentioned in the previous section, following protocols from the IEAC and CPCSEA. […] Samples were processed as discussed in Supplementary Information, and sandwich ELISA was performed to measure the growth hormone level in blood plasma. For acute toxicity, after peptide injection (s.c.), blood samples were collected on the 14th day for liver and kidney function tests.

[9] = in vitro; conditions: both, human, plasma; remark: listed apart in the source
[10] = physchem; conditions: pH 7.4

level at 0.5 h ([1]; Sprague Dawley) [ng/mL] | level at 1 h ([1]; Sprague Dawley) [ng/mL] | level at 2 h ([1]; Sprague Dawley, 250 ug/kg) [ng/mL] | half-life [1] [min] | IC50 [2] [nM] | binding against SSTR5 (in words) ([2]; HEK293T cells expressing SSTR5, cAMP GloSensor) | fraction unbound [3] | binding against SSTR2 (in words) ([4]; HEK293T cells expressing SSTR2, cAMP GloSensor) | IC50 [4] [nM] | Papp [5] [×10⁻⁶ cm/s] | t1/2 in SIF [6] | logD heptane ethylene glycol [7] | half-life [9] [min] | logD [10] | Compound | AUC 0_24 [8] [ng·h/mL] | AUC 0_48 [8] [ng·h/mL] | AUC 24_48 [8] [ng·h/mL] | inhibition of unstimulated GH release ([8]; rats, 250 μg/kg s.c., plasma GH by sandwich ELISA over 48 h)
146 | 107 | 40 | 42 ± 6 | > 10000 | complete loss in binding | 0.11 | complete loss in binding | > 10000 | 2.45 | over 72 h | -0.94 | 2040 | -0.65 | C[C@@H](O)[C@@H]1NC(=O)[C@H](CCCCN)NC(=S)[C@@H](Cc2c[nH]c3ccccc23)NC(=O)[C@H](Cc2ccccc2)NC(=O)[C@@H]2CCCN2C(=O)[C@H](Cc2ccccc2)NC1=O [13a] (cyclo(FPF[X10]T)) | 1085 | 2274 | 1188 | 
72 | 44 |  | 36 ± 12 | 228 ± 41.9 |  | 0.14 |  | 15.6 ± 4.3 | 2.92 | over 72 h | -0.83 | 1920 | -0.64 | C[C@@H](O)[C@@H]1NC(=S)[C@H](CCCCN)NC(=O)[C@@H](Cc2c[nH]c3ccccc23)NC(=O)[C@H](Cc2ccccc2)NC(=O)[C@@H]2CCCN2C(=O)[C@H](Cc2ccccc2)NC1=O [13b] (cyclo(FPF[dW][X7])) | 436 | 1134 | 668 | significant inhibition
